Assay [1] addresses T1, Histone-lysine N-methyltransferase NSD2 (Homo sapiens, UniProt O96028).
T1 sequence (O96028 whole entry): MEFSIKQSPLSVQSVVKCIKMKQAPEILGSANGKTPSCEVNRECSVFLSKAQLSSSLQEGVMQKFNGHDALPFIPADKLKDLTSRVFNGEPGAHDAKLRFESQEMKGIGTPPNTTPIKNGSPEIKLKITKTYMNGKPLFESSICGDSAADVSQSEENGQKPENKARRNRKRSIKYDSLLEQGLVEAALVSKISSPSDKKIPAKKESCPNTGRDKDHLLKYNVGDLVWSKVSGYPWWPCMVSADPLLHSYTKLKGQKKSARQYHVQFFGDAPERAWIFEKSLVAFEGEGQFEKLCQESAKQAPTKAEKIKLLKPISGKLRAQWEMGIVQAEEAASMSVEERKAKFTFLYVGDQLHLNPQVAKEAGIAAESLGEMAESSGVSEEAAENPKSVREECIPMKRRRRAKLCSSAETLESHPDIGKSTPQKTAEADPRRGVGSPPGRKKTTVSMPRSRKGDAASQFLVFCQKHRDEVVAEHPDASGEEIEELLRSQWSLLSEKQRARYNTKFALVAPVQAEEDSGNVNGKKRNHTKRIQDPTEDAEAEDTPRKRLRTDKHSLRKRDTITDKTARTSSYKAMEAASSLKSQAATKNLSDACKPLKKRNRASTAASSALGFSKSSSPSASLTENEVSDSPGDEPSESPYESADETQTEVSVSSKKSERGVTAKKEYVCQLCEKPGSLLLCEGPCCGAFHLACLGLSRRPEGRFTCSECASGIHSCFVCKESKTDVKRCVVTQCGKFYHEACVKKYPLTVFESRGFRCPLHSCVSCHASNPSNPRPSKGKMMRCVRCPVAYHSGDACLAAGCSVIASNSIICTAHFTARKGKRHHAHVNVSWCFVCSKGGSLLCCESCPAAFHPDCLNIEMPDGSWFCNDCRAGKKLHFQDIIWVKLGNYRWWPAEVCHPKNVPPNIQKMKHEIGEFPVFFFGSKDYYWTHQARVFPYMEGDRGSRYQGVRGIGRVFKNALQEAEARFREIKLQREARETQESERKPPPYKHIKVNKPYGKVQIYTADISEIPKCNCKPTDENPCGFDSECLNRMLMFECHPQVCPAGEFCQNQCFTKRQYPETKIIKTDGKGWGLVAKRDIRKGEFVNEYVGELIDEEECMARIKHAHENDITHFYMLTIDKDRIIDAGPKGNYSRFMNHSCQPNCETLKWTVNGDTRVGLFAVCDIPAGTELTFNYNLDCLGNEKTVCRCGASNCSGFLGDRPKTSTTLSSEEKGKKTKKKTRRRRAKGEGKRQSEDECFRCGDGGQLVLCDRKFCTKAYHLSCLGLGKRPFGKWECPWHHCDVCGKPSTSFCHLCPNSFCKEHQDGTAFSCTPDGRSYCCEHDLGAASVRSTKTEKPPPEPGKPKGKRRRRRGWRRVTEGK
The assay is classed as biochemical.

The next assay has as its target T2, Hexokinase HKDC1 (Homo sapiens, UniProt Q2TB90).
T2 sequence (Q2TB90 whole entry): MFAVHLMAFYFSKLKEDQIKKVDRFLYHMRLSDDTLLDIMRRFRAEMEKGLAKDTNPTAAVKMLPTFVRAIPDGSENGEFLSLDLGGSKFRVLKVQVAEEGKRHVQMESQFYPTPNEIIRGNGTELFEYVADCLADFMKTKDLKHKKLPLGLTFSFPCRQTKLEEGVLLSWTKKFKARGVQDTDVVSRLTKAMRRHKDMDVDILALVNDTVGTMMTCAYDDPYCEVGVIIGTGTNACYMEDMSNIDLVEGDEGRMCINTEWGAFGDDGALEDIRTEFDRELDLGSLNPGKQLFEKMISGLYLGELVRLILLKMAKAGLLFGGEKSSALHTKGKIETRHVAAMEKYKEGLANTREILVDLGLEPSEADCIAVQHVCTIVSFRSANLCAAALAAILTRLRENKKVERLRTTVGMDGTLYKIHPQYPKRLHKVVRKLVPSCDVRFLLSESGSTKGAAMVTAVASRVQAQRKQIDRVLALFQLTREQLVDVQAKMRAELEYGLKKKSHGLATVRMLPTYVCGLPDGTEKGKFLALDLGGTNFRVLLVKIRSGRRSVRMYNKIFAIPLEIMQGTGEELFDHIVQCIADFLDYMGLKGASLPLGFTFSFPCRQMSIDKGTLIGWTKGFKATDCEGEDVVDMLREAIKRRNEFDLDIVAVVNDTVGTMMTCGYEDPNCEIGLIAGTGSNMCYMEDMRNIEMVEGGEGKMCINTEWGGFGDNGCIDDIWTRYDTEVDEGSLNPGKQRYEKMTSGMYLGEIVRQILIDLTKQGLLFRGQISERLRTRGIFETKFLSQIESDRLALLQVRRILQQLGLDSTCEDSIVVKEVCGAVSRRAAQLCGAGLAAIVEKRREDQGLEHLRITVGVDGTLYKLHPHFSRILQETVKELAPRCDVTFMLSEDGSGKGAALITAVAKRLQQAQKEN
Kind of assay: inhibition of HKDC1 glucose phosphorylation – biochemical, W721R variant, dose response (AID 504729). The assay is classed as functional.

In assay [2] the target is T3, Microphthalmia-associated transcription factor (Homo sapiens, UniProt O75030).
T3 sequence (O75030 whole entry): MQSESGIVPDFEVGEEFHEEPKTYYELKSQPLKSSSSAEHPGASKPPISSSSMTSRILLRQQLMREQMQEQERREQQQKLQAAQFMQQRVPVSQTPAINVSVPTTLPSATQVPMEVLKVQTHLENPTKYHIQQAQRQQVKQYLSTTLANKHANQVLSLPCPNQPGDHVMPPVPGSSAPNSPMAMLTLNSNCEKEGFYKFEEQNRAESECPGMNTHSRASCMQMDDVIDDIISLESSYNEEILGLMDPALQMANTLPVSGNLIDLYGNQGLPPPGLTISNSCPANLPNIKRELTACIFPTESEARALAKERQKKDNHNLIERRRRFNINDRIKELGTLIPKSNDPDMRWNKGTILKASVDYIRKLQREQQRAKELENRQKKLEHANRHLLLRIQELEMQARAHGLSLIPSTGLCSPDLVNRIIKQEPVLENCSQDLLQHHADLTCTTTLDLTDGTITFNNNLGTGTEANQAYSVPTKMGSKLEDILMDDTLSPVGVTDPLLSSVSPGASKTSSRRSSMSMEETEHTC
The assay is described as follows: reducers of TRPM1 reporter luminescence, concentration series – cell-based, SK-MEL-5, cherry-picked, set 3, MITF inhibitor project, dose response (AID 493073).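 Note: SK-MEL-5 melanoma cells with luciferase driven by the MITF target TRPM1 promoter.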 In kind it is functional.

In another assay the target is Genome polyprotein (dengue virus type 2, UniProt P29990). The assay is described as follows: flavivirus cap methylation enzyme inhibition – biochemical, confirmation dose response, primary screen (AID 588689). In kind it is functional.
Genome polyprotein, sequence (P29990 2492-3391 limits assumed): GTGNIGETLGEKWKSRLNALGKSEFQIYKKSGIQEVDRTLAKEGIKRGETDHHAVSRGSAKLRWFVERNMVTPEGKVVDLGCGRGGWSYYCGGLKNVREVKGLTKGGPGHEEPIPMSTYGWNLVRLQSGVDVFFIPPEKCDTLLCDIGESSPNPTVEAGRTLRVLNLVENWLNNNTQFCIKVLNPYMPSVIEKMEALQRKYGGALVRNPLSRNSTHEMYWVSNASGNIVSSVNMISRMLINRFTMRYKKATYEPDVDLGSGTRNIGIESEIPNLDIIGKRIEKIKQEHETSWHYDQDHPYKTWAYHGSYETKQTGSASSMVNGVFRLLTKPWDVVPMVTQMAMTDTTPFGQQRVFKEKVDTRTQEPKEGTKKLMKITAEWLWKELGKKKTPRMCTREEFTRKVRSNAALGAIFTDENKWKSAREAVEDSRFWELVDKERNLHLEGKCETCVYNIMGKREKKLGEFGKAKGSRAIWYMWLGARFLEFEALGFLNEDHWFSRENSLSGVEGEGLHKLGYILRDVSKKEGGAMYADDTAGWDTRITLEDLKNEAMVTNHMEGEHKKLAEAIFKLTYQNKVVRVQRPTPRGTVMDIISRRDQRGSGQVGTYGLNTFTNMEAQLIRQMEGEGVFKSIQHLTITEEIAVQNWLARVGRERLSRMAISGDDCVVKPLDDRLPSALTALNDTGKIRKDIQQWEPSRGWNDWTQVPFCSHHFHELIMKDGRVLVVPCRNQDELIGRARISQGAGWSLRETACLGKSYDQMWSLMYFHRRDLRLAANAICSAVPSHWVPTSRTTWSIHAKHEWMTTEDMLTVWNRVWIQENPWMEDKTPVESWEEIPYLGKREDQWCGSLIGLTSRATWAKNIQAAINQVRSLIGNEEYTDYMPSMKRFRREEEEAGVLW
For another assay, the target named is T4, Caspase-6 (Homo sapiens, UniProt P55212).
T4 sequence (P55212 whole entry): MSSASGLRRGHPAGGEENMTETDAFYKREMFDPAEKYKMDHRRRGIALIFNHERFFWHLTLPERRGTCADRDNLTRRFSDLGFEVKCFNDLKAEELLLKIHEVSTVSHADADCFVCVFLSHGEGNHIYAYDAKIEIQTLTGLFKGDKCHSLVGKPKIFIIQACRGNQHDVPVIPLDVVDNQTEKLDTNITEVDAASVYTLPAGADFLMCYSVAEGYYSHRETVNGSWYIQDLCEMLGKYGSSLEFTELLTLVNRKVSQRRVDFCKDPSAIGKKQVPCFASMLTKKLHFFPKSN
Kind of assay: inhibition of CASP6 peptide cleavage – biochemical, VEID-R110 fluorescence, cherry-pick, dose response (AID 720632).

Another assay deals with Vero. The assay is described as follows: viability of Vero cells under compound – cytotoxicity control for flavivirus capping enzyme inhibitors (AID 588742). Particulars: Chlorocebus sabaeus. In kind it is functional.
The target in assay [3] is Tyrosyl-DNA phosphodiesterase 2 (Homo sapiens, UniProt O95551). The assay is described as follows: potency against TDP2 phosphodiesterase activity – biochemical, epi absorbance, IC50, dose response (AID 743297).
Tyrosyl-DNA phosphodiesterase 2, sequence (O95551 whole entry): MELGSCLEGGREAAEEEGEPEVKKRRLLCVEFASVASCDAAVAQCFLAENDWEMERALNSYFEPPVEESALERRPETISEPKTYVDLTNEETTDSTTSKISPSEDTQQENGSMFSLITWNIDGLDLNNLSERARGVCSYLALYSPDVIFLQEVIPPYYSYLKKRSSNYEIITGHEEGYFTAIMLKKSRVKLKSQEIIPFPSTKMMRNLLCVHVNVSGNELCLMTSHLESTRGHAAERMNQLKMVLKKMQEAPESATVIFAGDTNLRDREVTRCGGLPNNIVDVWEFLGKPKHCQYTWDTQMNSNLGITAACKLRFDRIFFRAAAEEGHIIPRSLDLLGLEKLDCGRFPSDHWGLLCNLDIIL
A short description of assay [4]: A2780 cell killing – plate reader, dry powder samples, cytotoxicity control, dose response (AID 743046). In kind it is functional, cell-based.
The nature of assay [5]: toxicity toward immortalized ovarian surface epithelium – cell-based, plate reader, dry powder samples, cytotoxicity control for PAX8 inhibitor project, dose response (AID 743045). In kind it is functional.
Assay [6] is described as follows: general cell-killing toxicity readout – plate reader, dry powder samples, cytotoxicity control for PAX8 inhibitor project, dose response (AID 743021). In kind it is functional, cell-based.
The nature of assay [7]: OVCAR-3 cell viability loss – plate reader, dry powder samples, PAX8 inhibitor project, dose response (AID 743044). The assay is classed as functional, cell-based.
Another assay deals with Paired box protein Pax-8 (Homo sapiens, UniProt Q06710). Kind of assay: PAX8 transcriptional activity inhibition in RMG-I – RMG-I cells, luciferase, cherry-pick, dose response (AID 687027).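 Note: luciferase reporter driven by Pax8 target thyroperoxidase promoter measured by SteadyGlo luminescence.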 In kind it is functional, cell-based.
Paired box protein Pax-8, sequence (Q06710 whole entry): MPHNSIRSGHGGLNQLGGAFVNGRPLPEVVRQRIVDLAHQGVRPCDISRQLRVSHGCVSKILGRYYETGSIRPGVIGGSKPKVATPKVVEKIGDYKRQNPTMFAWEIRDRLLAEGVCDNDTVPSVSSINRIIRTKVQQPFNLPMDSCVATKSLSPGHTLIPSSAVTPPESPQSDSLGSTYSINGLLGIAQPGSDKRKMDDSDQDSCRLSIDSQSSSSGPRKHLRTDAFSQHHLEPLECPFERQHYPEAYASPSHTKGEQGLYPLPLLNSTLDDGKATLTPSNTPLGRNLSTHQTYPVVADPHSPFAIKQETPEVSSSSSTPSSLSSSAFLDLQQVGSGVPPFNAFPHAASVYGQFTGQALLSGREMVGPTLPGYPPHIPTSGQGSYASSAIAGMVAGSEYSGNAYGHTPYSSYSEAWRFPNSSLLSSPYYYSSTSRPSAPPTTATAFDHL
Assay [8] has as its target Protein disulfide-isomerase (Homo sapiens, UniProt P07237). The assay is described as follows: inhibition of PDI-mediated insulin reduction – biochemical, turbidity, dry powder samples, set 2, confirmation (AID 652146).

The values below come from ChEMBL document CHEMBL1201862, “PubChem BioAssay data set” (2004).

The source made the active and inactive calls. A value given as a limit tells only on which side of the number the result lay.

Protein disulfide-isomerase, sequence (P07237 whole entry): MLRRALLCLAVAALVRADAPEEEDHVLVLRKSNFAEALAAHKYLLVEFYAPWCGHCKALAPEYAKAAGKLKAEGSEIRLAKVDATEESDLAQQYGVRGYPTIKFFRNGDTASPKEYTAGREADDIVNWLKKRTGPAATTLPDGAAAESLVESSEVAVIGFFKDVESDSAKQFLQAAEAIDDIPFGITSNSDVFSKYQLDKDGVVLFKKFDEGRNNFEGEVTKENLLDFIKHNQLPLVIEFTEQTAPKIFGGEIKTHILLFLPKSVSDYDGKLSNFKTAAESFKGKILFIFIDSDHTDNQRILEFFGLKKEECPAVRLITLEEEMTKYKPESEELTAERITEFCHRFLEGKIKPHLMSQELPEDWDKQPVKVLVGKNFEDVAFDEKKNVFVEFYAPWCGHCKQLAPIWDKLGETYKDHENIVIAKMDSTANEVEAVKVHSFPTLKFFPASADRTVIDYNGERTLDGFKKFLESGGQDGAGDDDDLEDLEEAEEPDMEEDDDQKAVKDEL

On to `Cc1ccc(C)c(-n2c3nc(=O)[nH]c(=O)c-3cc3cc([N+](=O)[O-])ccc32)c1`, for which the AC50 in assay [1] was > 20 µM (inactive); in [2] it was 8.42 µM (active); at Caspase-6, 20.7 µM (active). Further, the IC50 was 12.9 µM (active) at Hexokinase HKDC1, 14.9 µM (active) at Genome polyprotein and > 128 µM (inactive) in [3]. Besides, the CC50 with Vero is 14.5 µM (active).

As for `Cc1ccc(S(=O)(=O)Nc2ccc3c(c2)CC(=O)N([C@@H](C)CO)C[C@H](C)[C@@H](CN(C)Cc2ccc(Oc4ccccc4)cc2)O3)cc1`, the half-maximal activity concentration (AC50) is 38.6 µM (active) in [4]; 26.3 µM (active) in [5]; 55 µM (active) in assay [6]; 19.8 µM (active) in assay [7]; 4.67 µM (active) at Paired box protein Pax-8.

Turning to `CCOC(=O)C1(Cc2cccc(OC)c2)CCN(Cc2ccc(O)c(Cl)c2)CC1`, the AC50 in assay [8] was > 30 µM (inactive).
